# Test results taken from patent US9719981B2, “RAC1 inhibitors for the treatment of alport glomerular disease” (Father Flanagan's Boys' Home, priority 2012, dated 2017).
# Tested on: cultured podocytes
# Experiment: Real time qRT-PCR for MMP transcripts in cultured podocytes, static and stretched
# Format: cell-based, mouse
# Settings: relative to untreated cells
# Procedure: NF-κB Staining and −/+ Stretch pFAK397 Western Blot. GEC's were differentiated under “non-permissive” conditions for ten days, plated onto Bioflex 6-well plates (Flexcell International, Hillsborough, N.C.) coated with Collagen Type 1 (rat tail, BD Biosciences, Bedford, Mass.)/Placental Laminin (Sigma), cultured for two days in 0.5% FCS and exposed to mechanical strain for 4 hours, as previously described (Meehan et al., 2009, Kidney Int; 76: 968-976). For NF-κB Staining, cells were fixed with 2% PFA, 4% Sucrose in PBS for 10 minutes, permeabilized with 0.3% Triton, as previously described (Rao et al., 2006, Am J Pathol; 169: 32-46) incubated with αNF-κB P65 antibody at 1:50 overnight at 4° C., incubated with anti-rabbit secondary antibody at 1:750 for two hours at room temperature, gaskets were cut out, mounted on slides with […]™ (Vector Laboratories, Burlingame, Calif.) and cover slipped. For −/+ Stretch pFAK Western, protein was collected in M-PER (Thermo Scientific) as above and Western Blot run as described below.
# NF-κB SN50, Inhibitor Peptide Treatment, GEC's were cultured as described above, 10 μM NF-κB SN50 Inhibitor Peptide (EMD Millipore, Billerica, Mass.) was added (and after one additional hour) exposed to 20 hours of mechanical strain and RNA collected as previously described (Meehan et al., 2009, Kidney Int; 76: 968-976).
# Real time qRT-PCR. Total RNA was reverse transcribed using […]® III (Invitrogen, Life Technologies, Grand Island, N.Y.) with Oligo(dT)20 Primer (Invitrogen). The real time PCR was carried out using TAQMAN® Gene Expression Master Mix (Applied Biosystems, Life Technologies, Grand Island, N.Y.), and quantified using STEPONEPLUS™ Real-Time PCR System (Applied Biosystems). Samples were normalized to Mouse GAPDH Endogenous Control VIC® Probe (Applied Biosystems catalogue #4352339E) which was run alongside MMP-9 (Catalog #4331182, ID# Mm00442991_m1), MMP-10 (Catalog #4331182, ID# Mm00444630_m1), MMP-12 (Catalog #4331182, ID# Mm00500554_m1), IL-6 (Catalog #4331182, ID# Mm00446190_m1), NFKbia (Catalog #4331182, ID# Mm00477798_m1), and FAK (Catalog #4331182, ID# Mm00433209_m1) TAQMAN® Gene Expression Assay Probes (Applied Biosystems). Samples were run in triplicate with a final reaction volume of 20 ul with the following cycling parameters: 50° C. for 2 min, 95° C. for 10 min, followed by 40 cycles of a two-step PCR consisting of 95° C. for 15 s and 60° C. for 1 min. Relative changes in gene expression were determined by calculating the fold change using the comparative CT method of 2^−ΔΔCT. Data are expressed as the mean with standard deviation for at least four independent RNA samples per data point.
structure (smiles),measurement,setting,value
CNC(=O)c1ccccc1Nc1nc(Nc2ccc(N3CCOCC3)cc2OC)ncc1Cl [TAE226],MMP-10 message levels in stretched podocytes,biomechanical stretch,reduced
same,MMP-12 message levels in stretched podocytes,biomechanical stretch,reduced
same,MMP-10 expression in podocytes,static conditions,reduced expression
same,MMP-12 expression in podocytes,static conditions,reduced expression
